Experimental data from patent US7132420B2, “Aspartic protease inhibitors” (The United States of America as represented by the …, priority 1999, dated 2006).
Like-named read-outs stand apart in the source and are kept apart here.

Experiments:
normal cells = assay: toxicity against normal cells (IC50); assay type: cell-based; conditions: Table 1
From the text: (§1) This example illustrates the HIV-1 protease inhibition activity (Ki), HIV-1 antiviral data (EC50), and the toxicity against normal cells (IC50), for particular compounds of formula (I). The HIV protease assay was done according to the protocol described in Kageyama et al, Antimicrob. Agents Chemother., 37, 272 (1993). The HIV antiviral assay was done according to the protocol described in Weislow et al., J. National Cancer Inst. 81, 577 (1989).

HIV-1 protease = HIV-1 protease (Human immunodeficiency virus type 1 group M subtype B, UniProt P04585); assay: HIV protease assay (Ki); assay type: biochemical; conditions: for HIV-1 protease % inhibition: Table 1 Ki column
From the text: as §1
(§2) The HIV protease assay was done according to the protocol described in Example 35. The plasmepsin II assay was done according to the protocol used in Silva et al., Proc. Nat. Acad. Sci. USA, 93, pp. 10034–10039, September 1996 (Biochemstry). The cathepsin D assay was done according to the protocol described in Gulnik et al., FEBS Letters, 413, 379–384 (1997). The compounds illustrated in Table 2 are of the general formula (II), as described in Example 35.

HIV-1 = assay: HIV antiviral assay (EC50); assay type: cell-based; conditions: Table 1
From the text: The HIV protease assay was done according to the protocol described in Kageyama et al, Antimicrob. Agents Chemother., 37, 272 (1993). The HIV antiviral assay was done according to the protocol described in Weislow et al., J. National Cancer Inst. 81, 577 (1989).

plasmepsin II = plasmepsin II (Plasmodium falciparum, UniProt P46925); assay: biochemical; assay type: biochemical; conditions: Table 2; read-out: Pls II Ki
Sequence of plasmepsin II (P46925 125-453): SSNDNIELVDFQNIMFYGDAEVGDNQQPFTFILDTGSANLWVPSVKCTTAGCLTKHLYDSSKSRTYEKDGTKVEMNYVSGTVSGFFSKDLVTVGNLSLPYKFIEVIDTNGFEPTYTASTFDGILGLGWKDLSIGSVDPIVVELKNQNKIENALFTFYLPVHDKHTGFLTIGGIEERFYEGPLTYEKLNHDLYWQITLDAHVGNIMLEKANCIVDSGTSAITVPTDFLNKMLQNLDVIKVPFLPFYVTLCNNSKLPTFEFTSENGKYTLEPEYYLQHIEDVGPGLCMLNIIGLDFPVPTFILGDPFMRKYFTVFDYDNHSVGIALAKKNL
From the text: as §2

[1] = Table 1, in nM, read-out: HIV-1 Ki

Row | Structure (SMILES) | IC50 (normal cells) | EC50 (HIV-1) | Ki (HIV-1 protease; Table 1, read-out: HIV-1 Ki) | other results
1 | Cc1cccc(C)c1OCC(=O)N[C@@H](Cc1ccccc1)[C@@H](O)C[C@H](CC(C)C)NC(=O)CC(C)C [(55)] | > 100000 nM | 10000 nM |  | Ki (HIV-1 protease; [1]): 1.5 nM
2 | COc1ccc(S(=O)(=O)N[C@H](C(=O)N[C@@H](CC(C)C)C[C@H](O)[C@H](Cc2ccccc2)NC(=O)COc2c(C)cccc2C)C(C)C)cc1 [(54)] | 84000 nM | 200 nM | 0.0068 nM | 
3 | Cc1cccc(C)c1OCC(=O)N[C@@H](CC(C)C)C[C@H](O)[C@H](Cc1ccccc1)NC(=O)c1cccc(O)c1C [(42), (2S,3S,5S)-5-[N-[2-(2,6-dimethylphenoxy)acetyl]amino]-2-[N-(3-hydroxy-2-methylbenzoyl)amino]-3-hydroxy-7-methyl-1-phenyloctane] | > 100000 nM |  |  | Ki (HIV-1 protease): 0.311 nM; EC50 (HIV-1; Human immunodeficiency virus 1): 750 nM
4 | Cc1c(O)cccc1C(=O)N[C@@H](Cc1ccccc1)[C@@H](O)C[C@H](CC(C)C)NC(=O)[C@H](C(C)C)N1CCCNC1=O [(37), (2S,3S,5S)-2-[N-(3-hydroxy-2-methylbenzoyl)amino]-5-[N-[[3-methyl-2S-(2-oxo-tetrahydropyrimidin-1-yl)]butyryl]amino]-3-hydroxy-7-methyl-1-phenyloctane] | > 10000 nM | 200 nM | 0.104 ± 0.01 nM | 
5 | Cc1cccc(C)c1OCC(=O)N[C@@H](Cc1ccccc1)[C@@H](O)C[C@H](CC(C)C)NC(=O)c1cccc(O)c1 [(58)] | 10000 nM | 2000 nM |  | Ki (HIV-1 protease; [1]): 1.2 nM
6 | CC(C)C[C@@H](C[C@H](O)[C@H](Cc1ccccc1)NC(=O)OCc1ccccc1)NC(=O)[C@H](C(C)C)N1CCCNC1=O [(18)] | > 100000 nM | 600 nM | 0.065 ± 0.016 nM | 
7 | COc1ccc(C(=O)N[C@H](C(=O)N[C@@H](CC(C)C)C[C@H](O)[C@H](Cc2ccccc2)NC(=O)COc2c(C)cccc2C)C(C)C)cc1 [(52), (2S,3S,5S)-2-[N-[2-(2,6.-dimethylphenoxy)acetyl]amino]-5-[N-[[N′-(p-methoxyphenylcarbonyl)]valinyl]amino]-3-hydroxy-7-methyl-1-phenyloctane] | > 93000 nM | 200 nM | 0.03 nM | 
8 | CC(C)C[C@@H](C[C@H](O)[C@H](Cc1ccccc1)NC(=O)OCc1ccccc1)NC(=O)[C@@H](C(C)C)N1CCCNC1=O [(33)] |  |  |  | HIV-1 protease % inhibition (HIV-1 protease; @0.5 μM): 38%; HIV-1 protease % inhibition (HIV-1 protease; @1 μM): 65%
9 | CC(C)CC(CC(O)C(Cc1ccccc1)NC(=O)C(C(C)C)N1CCCNC1=O)NC(=O)OC(C)(C)C (centres unmarked) [(44)] |  |  | 1.49 nM | HIV-1 EC50 (μM) (HIV-1): in-active
10 | Cc1cccc(C)c1OCC(=O)NC(Cc1ccccc1)C(O)CC(CC(C)C)NC(=O)C(C(C)C)N1CCCN(C)C1=O (centres unmarked) [(68)] | 5000 nM |  |  | 
11 | Cc1cccc(C)c1OCC(=O)N[C@@H](CC(C)C)C[C@H](O)[C@H](Cc1ccccc1)NC(=O)O[C@H]1CCOC1 [(41), (2S,3S,5S)-5-[N-[2-(2,6-dimethylphenoxy)acetyl]amino]-2-[N-(3S-terahydrofuranyloxycarbonyl]amino]-3-hydroxy-7-methyl-1-phenyloctane] | > 100000 nM | > 1000 nM | 0.222 nM | 
12 | Cc1cccc(C)c1OCC(=O)N[C@@H](Cc1ccccc1)[C@@H](O)C[C@H](CC(C)C)NC(=O)C1CCCN(C(=O)OCc2ccccc2)C1 (some centres unmarked) [(47)] |  |  | 1.5 ± 0.066 nM | 
13 | CC(C)C[C@@H](C[C@H](O)[C@H](Cc1ccccc1)NC(=O)CNC(=O)OCc1ccccc1)NC(=O)c1cccc(O)c1 [(59)] |  | > 10000 nM |  | Ki (HIV-1 protease; [1]): 108 nM
14 | CC[C@H](C)[C@H](NC(=O)OCc1ccccc1)C(=O)N[C@@H](Cc1ccccc1)[C@@H](O)C[C@H](CC(C)C)NC(=O)c1cccc(O)c1 [(62)] | > 10000 nM | 1400 nM | 0.157 nM | Ki (HIV-1 protease; Table 2, read-out: HIV-1 Ki): 0.157 nM; Ki (plasmepsin II): 1.2 nM
15 | Cc1cccc(C)c1OCC(=O)N[C@@H](Cc1ccccc1)[C@@H](O)C[C@H](CC(C)C)NC(=O)OCc1cncs1 [(57), (2S,3S,5S)-2-[N-[2-(2,6-dimethylphenoxy)acetyl]amino]-5-[N-[(thiazol-5-yl-methoxy)carbonyl]amino]-3-hydroxy-7-methyl-1-phenyloctane] | 10000 nM |  |  | Ki (HIV-1 protease): 0.094 nM; EC50 (HIV-1; Human immunodeficiency virus 1): 1000 nM
16 | Cc1cccc(C)c1OCC(=O)N[C@@H](Cc1ccccc1)[C@@H](O)C[C@H](CC(C)C)NC(=O)C1CCN(C(=O)OCc2ccccc2)CC1 [(48)] |  |  |  | Ki (HIV-1 protease; [1]): 113 nM
17 | CC(C)C[C@@H](C[C@H](O)[C@H](Cc1ccccc1)NC(=O)[C@@H](NC(=O)OCc1ccccc1)C(C)C)NC(=O)c1cccc(O)c1 [Compound (60)] | > 10000 nM | 910 nM | 0.198 nM | Ki (HIV-1 protease; Table 2, read-out: HIV-1 Ki): 0.198 nM; Ki (plasmepsin II): 2.4 nM
18 | CC(C)C[C@@H](C[C@H](O)[C@H](Cc1ccccc1)NC(=O)N1CCOCC1)NC(=O)[C@H](C(C)C)N1CCCNC1=O [(36)] | > 100000 nM | 2000 nM | 0.571 nM | 
19 | CC(C)(C)OC(=O)N[C@@H](Cc1ccccc1)C[C@H](O)[C@H](Cc1ccccc1)NC(=O)OCc1ccccc1 [(53), reference compound] | > 100000 nM | > 10000 nM |  | Ki (HIV-1 protease; [1]): 1 nM
20 | Cc1cccc(C)c1OCC(=O)N[C@@H](Cc1ccccc1)[C@@H](O)C[C@H](CC(C)C)NC(=O)[C@@H](N)C(C)C [(49)] | > 100000 nM | 8000 nM |  | Ki (HIV-1 protease; [1]): 4 nM
21 | Cc1cccc(C)c1OCC(=O)N[C@@H](Cc1ccccc1)[C@@H](O)C[C@H](CC(C)C)NC(=O)[C@H](C)NC(=O)OCc1ccccc1 [(56), (2S,3S,5S)-5-[N-[N′-(benzyloxycarbonyl)alaninyl]amino]-2-[N-[2-(2,6-dimethylphenoxy)acetyl]amino]-3-hydroxy-7-methyl-1-phenyloctane] | > 100000 nM | 1000 nM | 0.195 nM | 
22 | Cc1cccc(C)c1OCC(=O)N[C@@H](CC(C)C)C[C@H](O)[C@H](Cc1ccccc1)NC(=O)OCc1ccccc1 [(40), (2S,3S,5S)-2-[N-(benzyloxycarbonyl)amino]-5-[N-[2-(2,6-dimethylphenoxy)acetyl]amino]-3-hydroxy-7-methyl-1-phenyloctane] |  |  | 0.197 nM | HIV-1 EC50 (μM) (HIV-1): inactive
23 | CC(C)C[C@@H](C[C@H](O)[C@H](Cc1ccccc1)NC(=O)[C@H](Cc1ccccc1)NC(=O)OCc1ccccc1)NC(=O)c1cccc(O)c1 [(67)] |  |  |  | Ki (plasmepsin II): 17 nM; HIV-1 EC50 (μM) (HIV-1): not active
24 | Cc1cccc(C)c1OCC(=O)N[C@@H](Cc1ccccc1)[C@@H](O)C[C@H](CC(C)C)NC(=O)[C@@H](NS(C)(=O)=O)C(C)C [(51), (2S,3S,5S)-2-[N-[2-(2,6-dimethylphenoxy)acetyl]amino]-5-[N-[[N′-(methylsulfonyl)]valinyl]amino]-3-hydroxy-7-methyl-1-phenyloctane] | > 100000 nM | 700 nM | 0.034 nM | 
25 | Cc1cccc(C)c1OCC(=O)N[C@@H](Cc1ccccc1)[C@@H](O)C[C@H](CC(C)C)NC(=O)[C@H](CC(N)=O)NC(=O)c1ccc2ccccc2n1 [(65)] |  |  | 0.0382 nM | 
26 | CC(C)C[C@@H](C[C@H](O)[C@H](Cc1ccccc1)NC(=O)[C@H](C)NC(=O)OCc1ccccc1)NC(=O)c1cccc(O)c1 [(61)] |  | > 10000 nM |  | Ki (HIV-1 protease; [1]): 2 nM
27 | CC(=O)N[C@H](C(=O)N[C@@H](CC(C)C)C[C@H](O)[C@H](Cc1ccccc1)NC(=O)COc1c(C)cccc1C)C(C)C [(50)] | > 100000 nM | 300 nM | 0.014 nM | 
